Results reported in patent publication US12673946B2, “Pyrimidin-4(3H)-one derivatives as TRPV4 antagonists” (RaQualia Pharma Inc., priority 2020, dated 2026).

Biological target: T1, human TRPV4 (Homo sapiens, UniProt Q9HBA0)
T1 construct: host or cells: tetracycline-inducible Flp-In T-REx 293 cells
Experiment: Hypotonicity-induced Ca2+ influx (Fluo-4, FDSS)
Format: cell-based
Outline: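 Flp-In T-REx 293 cells with tetracycline-induced human TRPV4, loaded with Fluo-4 for 60 min at 25 °C. Compound added 5 min before hypotonic mannitol/CaCl2 solution. Ca2+ signal recorded for 4.5 min on FDSS.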

[1] = Flp-In T-REx 293 cells expressing human TRPV4, examples listed under heading 'Human IC50<50 nM'
[2] = Flp-In T-REx 293 cells stably expressing human TRPV4, compounds listed by potency bin (<10 nM Tables 96-1/96-2, <3 nM Table 97)

T1 sequence (Q9HBA0 whole entry): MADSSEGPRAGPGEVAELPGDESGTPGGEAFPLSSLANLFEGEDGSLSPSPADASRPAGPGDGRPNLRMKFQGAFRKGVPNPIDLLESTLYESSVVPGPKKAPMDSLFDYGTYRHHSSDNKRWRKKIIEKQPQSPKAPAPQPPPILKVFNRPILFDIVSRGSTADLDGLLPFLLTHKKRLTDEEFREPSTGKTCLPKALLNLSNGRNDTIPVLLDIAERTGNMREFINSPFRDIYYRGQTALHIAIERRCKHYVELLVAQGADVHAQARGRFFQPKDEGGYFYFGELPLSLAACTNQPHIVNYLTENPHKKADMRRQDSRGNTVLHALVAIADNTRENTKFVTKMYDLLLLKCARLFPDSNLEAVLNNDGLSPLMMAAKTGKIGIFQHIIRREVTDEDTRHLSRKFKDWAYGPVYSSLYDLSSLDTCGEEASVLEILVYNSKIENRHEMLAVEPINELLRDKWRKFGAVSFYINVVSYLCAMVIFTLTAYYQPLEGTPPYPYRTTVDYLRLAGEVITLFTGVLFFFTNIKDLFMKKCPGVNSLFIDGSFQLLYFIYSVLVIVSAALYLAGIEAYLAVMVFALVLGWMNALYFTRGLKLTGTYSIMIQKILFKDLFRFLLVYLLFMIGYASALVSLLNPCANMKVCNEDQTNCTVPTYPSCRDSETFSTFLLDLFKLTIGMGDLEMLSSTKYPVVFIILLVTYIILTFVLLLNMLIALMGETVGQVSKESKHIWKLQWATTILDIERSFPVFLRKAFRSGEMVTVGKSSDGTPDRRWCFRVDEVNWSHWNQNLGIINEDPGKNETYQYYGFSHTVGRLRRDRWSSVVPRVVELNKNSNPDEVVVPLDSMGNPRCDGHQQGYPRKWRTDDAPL

IC50 [1] | IC50 [2] | SMILES
< 50 nM | < 10 nM | CC(C)(C)c1cccc(-c2cccc([C@@H](O)C(=O)N3CCCc4nc(C5(c6cc(-c7ccccc7)cs6)CC5)[nH]c(=O)c4C3)c2)c1 [54-12]
< 50 nM | < 10 nM | O=C(C(O)c1cncc(-c2cccc(C(F)(F)F)c2)c1)N1CCc2nc(C3(c4ccccc4)CC3)[nH]c(=O)c2C1 (stereo not drawn) [48-4]
< 50 nM | – | O=C(C(O)c1cccc(-c2csc3ccccc23)c1)N1CCc2nc(C3(c4ccccc4)CC3)[nH]c(=O)c2C1 (stereo not drawn) [44-40]
< 50 nM | < 3 nM | O=C([C@H](O)c1cccc(C(F)(F)F)c1)N1CCCc2nc(C3(c4cccc(-c5ccc(C(F)(F)F)nc5)c4)CC3)[nH]c(=O)c2C1 [42-46]
< 50 nM | < 3 nM | N#Cc1cc(Cl)cc(-c2cccc([C@@H](O)C(=O)N3CCc4nc(C5(c6ccccc6)CC5)[nH]c(=O)c4C3)c2)c1 [44-110]
< 50 nM | < 3 nM | O=C([C@H](O)c1cccc(-c2cccc(C(F)(F)F)c2)c1)N1CCCc2nc(C3(c4ccccc4)CC3)[nH]c(=O)c2C1 [49-13]
< 50 nM | < 10 nM | O=C(C(O)c1cccc(-c2ccc(OC(F)(F)F)cc2)c1)N1CCCc2nc(C3(c4ccccc4)CC3)[nH]c(=O)c2C1 (stereo not drawn) [49-11]
< 50 nM | < 3 nM | O=C([C@H](O)c1cccc(-c2ccc(F)c(Cl)c2)c1)N1CCc2nc(C3(c4ccccc4)CC3)[nH]c(=O)c2C1 [44-82]
< 50 nM | – | O=C([C@H](O)c1cccc(-c2ccc3ncccc3c2)c1)N1CCc2nc(C3(c4ccccc4)CC3)[nH]c(=O)c2C1 [44-88]
< 50 nM | < 3 nM | N#Cc1ccc(-c2cccc(C3(c4nc5c(c(=O)[nH]4)CN(C(=O)[C@H](O)c4cccc(C(F)(F)F)c4)CCC5)CC3)c2)cn1 [42-55]
< 50 nM | < 10 nM | CC(C)(C)c1cccc(-c2cccc([C@@H](O)C(=O)N3CCc4nc(C5(c6cccc(Cl)c6)CC5)[nH]c(=O)c4C3)c2)c1 [45-2]
< 50 nM | < 3 nM | COc1cc(-c2cccc(C3(c4nc5c(c(=O)[nH]4)CN(C(=O)[C@H](O)c4cccc(C(F)(F)F)c4)CCC5)CC3)c2)ccn1 [42-2]
< 50 nM | < 3 nM | O=C([C@H](O)c1cccc(Cl)c1)N1CCCc2nc(C3(c4cccc(C5CCCCC5)c4)CC3)[nH]c(=O)c2C1 [29-2, (R)-6-(2-(3-chlorophenyl)-2-hydroxyacetyl)-2-(1-(3-cyclohexylphenyl)cyclopropyl)-3,5,6,7,8,9-hexahydro-4H-pyrimido[5,4-c]azepin-4-one]
< 50 nM | – | O=C(C(O)c1cccc(-c2ccnc(C(F)(F)F)c2)c1F)N1CCc2nc(C3(c4ccccc4)CC3)[nH]c(=O)c2C1 (stereo not drawn) [44-23]
< 50 nM | < 3 nM | CC(C)c1csc(C2(c3nc4c(c(=O)[nH]3)CN(C(=O)[C@H](O)c3cccc(-c5cccc(F)c5)c3)CCC4)CC2)c1 [54-5]
< 50 nM | – | CCOc1ccc(-c2cccc(C(O)C(=O)N3CCc4nc(C5(c6ccccc6)CC5)[nH]c(=O)c4C3)c2)cc1 (stereo not drawn) [44-37]
< 50 nM | < 10 nM | CC(C)(C)c1cccc(-c2cccc([C@@H](O)C(=O)N3CCCc4nc(C5(c6cncc(C7CCCCC7)c6)CC5)[nH]c(=O)c4C3)c2)c1 [55-12]
< 50 nM | < 10 nM | O=C([C@H](O)c1cccc(-c2ccc(Cl)c(OC(F)(F)F)c2)c1)N1CCCc2nc(C3(c4ccccc4)CC3)[nH]c(=O)c2C1 [49-41]
< 50 nM | – | O=C(C(O)c1cccc(-c2cc(F)cc(F)c2)c1)N1CCc2nc(C3(c4ccccc4)CC3)[nH]c(=O)c2C1 (stereo not drawn) [44-45]
< 50 nM | < 10 nM | N#Cc1cc(F)cc(-c2cccc(C3(c4nc5c(c(=O)[nH]4)CN(C(=O)[C@H](O)c4cccc(C(F)(F)F)c4)CCC5)CC3)c2)c1 [42-69]
< 50 nM | < 10 nM | O=C(N1CCCc2nc(C3(c4ccccc4)CC3)[nH]c(=O)c2C1)C(F)(F)c1cccc(-c2cccc(C(F)(F)F)c2)c1 [58-1]
< 50 nM | < 10 nM | O=C([C@H](O)c1cccc(Cl)c1)N1CCCc2nc(C3(c4cccc(-c5cc6ccccc6s5)c4)CC3)[nH]c(=O)c2C1 [40-18]
< 50 nM | < 10 nM | CC(C)c1cccc(C2(c3nc4c(c(=O)[nH]3)CN(C(=O)Cc3cccc(-c5cccc(C(F)(F)F)c5)c3)CCC4)CC2)c1 [31-13]
< 50 nM | < 10 nM | CC(C)(C)c1cccc(-c2cccc([C@@H](O)C(=O)N3CCCc4nc(C5(c6cccc(-c7csc8ccccc78)c6)CC5)[nH]c(=O)c4C3)c2)c1 [52-12]
< 50 nM | < 10 nM | CC(C)c1cc(C2(c3nc4c(c(=O)[nH]3)CN(C(=O)[C@H](O)c3cccc(C(F)(F)F)c3)CCC4)CC2)ccn1 [32-1]
< 50 nM | < 10 nM | O=C(c1ccccc1)N1CCC(c2cccc(C3(c4nc5c(c(=O)[nH]4)CN(C(=O)[C@H](O)c4cccc(C(F)(F)F)c4)CCC5)CC3)c2)CC1 [31-10]
< 50 nM | – | O=C(C(O)c1cccc(-c2cccc(Cl)c2)c1)N1CCc2nc(C3(c4ccccc4)CC3)[nH]c(=O)c2C1 (stereo not drawn) [44-21]
< 50 nM | – | O=C(NCc1ccccc1)c1csc(C2(c3nc4c(c(=O)[nH]3)CN(C(=O)[C@H](O)c3cccc(C(F)(F)F)c3)CCC4)CC2)c1 [59-6]
< 50 nM | < 10 nM | CC(C)c1cncc(C2(c3nc4c(c(=O)[nH]3)CN(C(=O)[C@H](O)c3cccc(-c5cccc(C(C)(C)C)c5)c3)CCC4)CC2)c1 [55-6]
< 50 nM | < 10 nM | O=C([C@H](O)c1cccc(-c2cccc(Cl)c2)c1)N1CCCc2nc(C3(c4cccc(Cl)c4)CC3)[nH]c(=O)c2C1 [50-14]

The next lines start with the compound.

SMILES | IC50 [1] | IC50 [2]
O=C(N1CCCc2nc(C3(c4cncc(-c5ccccc5)c4)CC3)[nH]c(=O)c2C1)C(F)(F)c1cccc(Cl)c1F [22-7] | < 50 nM | < 3 nM
O=C([C@H](O)c1cccc(C(F)(F)F)c1)N1CCc2nc(C3(c4cc(C5CCCC5)cs4)CC3)[nH]c(=O)c2C1 [15-1] | < 50 nM | < 3 nM
O=C([C@H](O)c1cccc(F)c1F)N1CCc2nc(C3(c4cccc(Cl)c4)CC3)[nH]c(=O)c2C1 [3-48] | < 50 nM | –
O=C(C(O)c1cccc(Cl)c1F)N1CCCc2nc(C3(c4cccc(Cl)c4)CC3)[nH]c(=O)c2C1 (stereo not drawn) [17-7] | < 50 nM | < 3 nM
O=C(Cc1cccc(SC(F)(F)F)c1)N1CCCc2nc(C3(c4ccccc4)CC3)[nH]c(=O)c2C1 [17-26] | < 50 nM | < 10 nM
O=C(Cc1cccc(-c2coc3ccccc23)c1)N1CCCc2nc(C3(c4ccccc4)CC3)[nH]c(=O)c2C1 [17-137] | < 50 nM | < 10 nM
O=C(COc1cccc(C(F)(F)F)c1)N1CCCc2nc(C3(c4cccc(Cl)c4)CC3)[nH]c(=O)c2C1 [17-147] | < 50 nM | –
O=C(Cc1cccc(-c2cccc(Cl)c2)c1)N1CCCc2nc(C3(c4ccccc4)CC3)[nH]c(=O)c2C1 [17-136] | < 50 nM | < 10 nM
O=C([C@H](O)c1cccc(Cl)c1)N1CCc2nc(C3(c4cncc(C5CCC(F)(F)CC5)c4)CC3)[nH]c(=O)c2C1 [25-4] | < 50 nM | < 10 nM
O=C([C@H](O)c1cccc(Cl)c1)N1CCc2nc(C3(c4cccs4)CC3)[nH]c(=O)c2C1 [6-7] | < 50 nM | –
CC(C)c1csc(C2(c3nc4c(c(=O)[nH]3)CN(C(=O)[C@H](O)c3cccc(Cl)c3)CCC4)CC2)c1 [18-24] | < 50 nM | < 3 nM
O=C(Cc1cccc(-c2cccc(C(F)(F)F)c2)c1)N1CCc2nc(C3(c4cccc(C5CCCCC5)c4)CC3)[nH]c(=O)c2C1 [27-4] | < 50 nM | < 10 nM
O=C(N1CCCc2nc(C3(c4cncc(-c5ccccc5)c4)CC3)[nH]c(=O)c2C1)C(F)(F)c1cccc(Cl)c1 [22-2] | < 50 nM | < 3 nM
O=C(C(O)c1cccc(SC(F)(F)F)c1)N1CCc2nc(C3(c4cccc(F)c4)CC3)[nH]c(=O)c2C1 (stereo not drawn) [14-27] | < 50 nM | –
O=C(N1CCCc2nc(C3(c4cccc(Cl)c4)CC3)[nH]c(=O)c2C1)C(F)(F)c1cccc(C(F)(F)F)c1 [20-4] | < 50 nM | < 3 nM
O=C([C@H](O)c1cccc(Cl)c1)N1CCc2nc(C3(c4cc(C5CCC(F)(F)CC5)cs4)CC3)[nH]c(=O)c2C1 [23-1, (R)-6-(2-(3-chlorophenyl)-2-hydroxyacetyl)-2-(1-(4-(4,4-difluorocyclohexyl)thiophen-2-yl)cyclopropyl)-5,6,7,8-tetrahydropyrido[4,3-d]pyrimidin-4(3H)-one] | < 50 nM | < 10 nM
N#Cc1cc(Cl)cc(-c2cccc(CC(=O)N3CCc4nc(C5(c6cccc(Cl)c6)CC5)[nH]c(=O)c4C3)c2)c1 [14-121] | < 50 nM | –
CC(C)c1cccc(C(O)C(=O)N2CCCc3nc(C4(c5ccccc5)CC4)[nH]c(=O)c3C2)c1 (stereo not drawn) [17-59] | < 50 nM | –
CC(C)c1cncc(C2(c3nc4c(c(=O)[nH]3)CN(C(=O)[C@H](O)c3cccc(C(F)(F)F)c3)CC4)CC2)c1 [28-3] | < 50 nM | < 10 nM
O=C([C@H](O)c1cccc(C(F)(F)F)c1)N1CCCc2nc(C3(c4cccc(Cl)c4)CC3)[nH]c(=O)c2C1 [17-12] | < 50 nM | < 10 nM
O=C(C(O)c1cccc(-c2cccc(OC(F)(F)F)c2)c1)N1CCCc2nc(C3(c4cccc(F)c4)CC3)[nH]c(=O)c2C1 (stereo not drawn) [17-15] | < 50 nM | < 10 nM
O=C(C(O)c1cccc(-c2cccc(F)c2)c1)N1CCc2nc(C3(c4cccs4)CC3)[nH]c(=O)c2C1 (stereo not drawn) [15-11] | < 50 nM | –
CC(C)c1cccc(C2(c3nc4c(c(=O)[nH]3)CN(C(=O)C(O)c3cccc(C(F)(F)F)c3F)CCC4)CC2)c1 (stereo not drawn) [17-9] | < 50 nM | < 10 nM
O=C([C@H](O)c1cccc(C(F)(F)F)c1)N1CCc2nc(C3(c4cc(C5CCCCC5)cs4)CC3)[nH]c(=O)c2C1 [15-4] | < 50 nM | < 3 nM
CC(C)c1cccc(C2(c3nc4c(c(=O)[nH]3)CN(C(=O)C(O)c3cccc(C(C)(C)C)c3)CCC4)CC2)c1 (stereo not drawn) [17-8] | < 50 nM | < 3 nM
